Test results published in patent US10407446B2, “Amino-triazolopyridine compounds and their use in treating cancer” (AstraZeneca AB, priority 2016, dated 2019).
Like-named read-outs stand apart in the source and are kept apart here.

What was measured:
TTK = TTK (Homo sapiens (Human), UniProt P33981); test: TTK enzyme assay (LanthaScreen Eu Kinase Binding assay); details: mean of at least 2 experiments
Source text: The LanthaScreen® Eu Kinase Binding assay format uses binding of an Alexa Fluor® conjugate or “tracer” to a kinase, which is detected by addition of a Eu-labeled anti-tag antibody. […] The degree of FRET measured in the assay is used to determine the binding of a compound.
Plates were then read using a fluorescence plate reader.

JAK1 = JAK1 (Homo sapiens (Human), UniProt P23458); test: JAK1 enzyme assay (Z'-LYTE); type: biochemical; details: 75 μM ATP; mean of at least 2 experiments; read-out: JAK1 enz pIC50 (converted)
Method: (§1) d) Aurora-A, Aurora-B, JAK1, JAK2, JAK3 Enzyme Assays
(§2) The inhibitory activity of compounds against AURKA, AURKB, JAK1, JAK2 and JAK3 was determined in Z′-LYTE® assays run by ThermoFisher Scientific as part of their SelectScreen® Biochemical Kinase Profiling Service. The Z′-LYTE® biochemical assay format employs a fluorescence-based, coupled-enzyme format and is based on the differential sensitivity of phosphorylated and non-phosphorylated peptides to proteolytic cleavage. The peptide substrate is labeled with two fluorophores—one at each end—that make up a FRET pair. In the primary reaction, the kinase transfers the gamma-phosphate of ATP to a single tyrosine, serine or threonine residue in a synthetic FRET-peptide. In the secondary reaction, a site-specific protease recognises and cleaves non-phosphorylated FRET-peptides. Phosphorylation of FRET-peptides suppresses cleavage by the Development Reagent. Cleavage disrupts FRET between the donor (i.e., coumarin) and acceptor (i.e., fluorescein) fluorophores on the FRET-peptide, whereas uncleaved, phosphorylated FRET-peptides maintain FRET. A ratiometric method, which calculates the ratio (the Emission Ratio) of donor emission to acceptor emission after excitation of the donor fluorophore at 400 nm, is used to quantitate reaction progress. Both cleaved and uncleaved FRET-peptides contribute to the fluorescence signals and therefore to the Emission Ratio. The extent of phosphorylation of the FRET-peptide can be calculated from the Emission Ratio.
(§3) 2.4 μL Kinase Buffer (50 mM HEPES pH 7.5, 0.01% BRIJ-35, 10 mM MgCl2, 1 mM EGTA), 5 μL 2× Peptide/Kinase mixture (detailed below for each kinase) and 2.5 μL 4× ATP Solution (prepared in Kinase Buffer) were added separately to the compound plates, placed on a plate shaker for 30 sec, and then incubated for 60 mins at room temperature. […] Assay plates were placed on a plate shaker for 30 sec, incubated for 60 mins at room temperature, and then read using a fluorescence plate reader.

JAK2 = JAK2 (Homo sapiens (Human), UniProt O60674); test: JAK2 enzyme assay (Z'-LYTE); type: biochemical; details: 25 μM ATP; mean of at least 2 experiments; read-out: JAK2 enz pIC50 (converted)
Method: as §1, §2, §3

JAK3 = JAK3 (Homo sapiens (Human), UniProt P52333); test: JAK3 enzyme assay (Z'-LYTE); type: biochemical; details: 10 μM ATP; mean of at least 2 experiments; read-out: JAK3 enz pIC50 (converted)
Source text: The 2× AURKB (Aurora B)/Ser/[…]

AURKA (Aurora A) = AURKA (Aurora A) (Homo sapiens (Human), UniProt O14965); test: Aurora-A enzyme assay (Z'-LYTE); type: biochemical; details: 10 μM ATP; mean of at least 2 experiments; read-out: AurA enz pIC50 (converted)
Method: as §1, §2, §3

AURKB (Aurora B) = AURKB (Aurora B) (Homo sapiens (Human), UniProt Q96GD4); test: Aurora-B enzyme assay (Z'-LYTE); type: biochemical; details: 75 μM ATP; mean of at least 2 experiments; read-out: AurB enz pIC50 (converted)
Method: as §1, §2, §3

DNAPK [1] = target: T1, DNAPK (Homo sapiens (Human), UniProt P78527); type: biochemical; details: mean of at least 2 experiments; 18 μM ATP; read-out: DNA-PK enz pIC50 (converted)
Source text: The following assays were used to measure the effects of the compounds described herein: a) DNAPK enzyme potency assay; b) DNAPK cellular potency assay. During the description of the assays, generally: • i. The following abbreviations have been used; DMSO=Dimethyl Sulphoxide; DTT=Dithiothreitol; EDTA=Ethylenediaminetetraacetic Acid, TR-FRET=Time Resolved Fluorescence Resonance Energy Transfer, ATP=Adenosine triphosphate, DTT=Dithiothreitol, DNA=Deoxyribonucleic acid, HEPES=(2-hydroxyethyl)-1-piperazineethanesulfonic acid • ii.

DNAPK [2] = target: T1, DNAPK; test: DNAPK cellular potency assay (DNA-PK cell), pS2056-DNAPK ELISA in irradiated A549 cells; type: cell-based; details: A549 cell line, 8 Gy radiation, mean of at least 2 experiments, read-out: DNA-PK cell pIC50 (converted)

JAK1, sequence (P23458 whole entry): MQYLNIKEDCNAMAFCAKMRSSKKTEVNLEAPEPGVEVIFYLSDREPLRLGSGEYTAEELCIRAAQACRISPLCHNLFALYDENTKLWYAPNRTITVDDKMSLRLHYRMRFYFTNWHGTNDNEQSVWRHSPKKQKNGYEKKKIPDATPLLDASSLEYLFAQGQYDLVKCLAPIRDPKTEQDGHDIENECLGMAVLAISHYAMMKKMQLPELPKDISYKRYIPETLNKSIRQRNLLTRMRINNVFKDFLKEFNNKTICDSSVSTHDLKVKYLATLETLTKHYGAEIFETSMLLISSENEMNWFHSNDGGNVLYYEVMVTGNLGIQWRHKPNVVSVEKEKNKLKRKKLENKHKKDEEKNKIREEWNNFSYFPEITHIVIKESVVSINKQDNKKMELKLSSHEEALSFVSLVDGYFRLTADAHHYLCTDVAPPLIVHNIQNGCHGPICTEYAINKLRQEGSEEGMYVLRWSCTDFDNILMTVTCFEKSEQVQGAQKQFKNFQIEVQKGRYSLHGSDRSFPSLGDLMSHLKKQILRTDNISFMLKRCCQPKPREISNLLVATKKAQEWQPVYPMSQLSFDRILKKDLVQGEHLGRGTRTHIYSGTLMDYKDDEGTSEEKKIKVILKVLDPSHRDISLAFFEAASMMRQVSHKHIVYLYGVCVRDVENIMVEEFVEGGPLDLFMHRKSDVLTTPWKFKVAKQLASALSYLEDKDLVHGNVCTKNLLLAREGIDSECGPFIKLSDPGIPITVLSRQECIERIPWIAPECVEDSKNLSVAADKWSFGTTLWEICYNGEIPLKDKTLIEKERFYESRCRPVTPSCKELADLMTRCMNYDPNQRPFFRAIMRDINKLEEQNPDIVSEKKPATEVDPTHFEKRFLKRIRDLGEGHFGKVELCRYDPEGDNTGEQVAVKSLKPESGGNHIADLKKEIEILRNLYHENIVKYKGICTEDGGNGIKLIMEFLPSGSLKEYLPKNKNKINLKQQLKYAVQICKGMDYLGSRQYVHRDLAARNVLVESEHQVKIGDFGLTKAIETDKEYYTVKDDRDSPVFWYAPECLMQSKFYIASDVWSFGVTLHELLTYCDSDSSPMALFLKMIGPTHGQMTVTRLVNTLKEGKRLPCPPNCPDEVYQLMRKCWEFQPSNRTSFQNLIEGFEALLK
AURKA (Aurora A), sequence (O14965 whole entry): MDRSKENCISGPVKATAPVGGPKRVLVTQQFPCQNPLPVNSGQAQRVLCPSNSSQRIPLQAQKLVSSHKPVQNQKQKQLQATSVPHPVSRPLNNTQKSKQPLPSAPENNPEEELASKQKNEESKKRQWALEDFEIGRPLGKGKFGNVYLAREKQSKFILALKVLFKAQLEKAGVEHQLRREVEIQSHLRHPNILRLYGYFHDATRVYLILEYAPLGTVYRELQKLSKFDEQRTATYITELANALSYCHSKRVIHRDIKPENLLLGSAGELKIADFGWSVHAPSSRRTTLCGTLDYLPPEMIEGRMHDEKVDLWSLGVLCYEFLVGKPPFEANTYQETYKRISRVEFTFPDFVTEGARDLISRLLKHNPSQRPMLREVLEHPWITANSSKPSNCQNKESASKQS
JAK2, sequence (O60674 whole entry): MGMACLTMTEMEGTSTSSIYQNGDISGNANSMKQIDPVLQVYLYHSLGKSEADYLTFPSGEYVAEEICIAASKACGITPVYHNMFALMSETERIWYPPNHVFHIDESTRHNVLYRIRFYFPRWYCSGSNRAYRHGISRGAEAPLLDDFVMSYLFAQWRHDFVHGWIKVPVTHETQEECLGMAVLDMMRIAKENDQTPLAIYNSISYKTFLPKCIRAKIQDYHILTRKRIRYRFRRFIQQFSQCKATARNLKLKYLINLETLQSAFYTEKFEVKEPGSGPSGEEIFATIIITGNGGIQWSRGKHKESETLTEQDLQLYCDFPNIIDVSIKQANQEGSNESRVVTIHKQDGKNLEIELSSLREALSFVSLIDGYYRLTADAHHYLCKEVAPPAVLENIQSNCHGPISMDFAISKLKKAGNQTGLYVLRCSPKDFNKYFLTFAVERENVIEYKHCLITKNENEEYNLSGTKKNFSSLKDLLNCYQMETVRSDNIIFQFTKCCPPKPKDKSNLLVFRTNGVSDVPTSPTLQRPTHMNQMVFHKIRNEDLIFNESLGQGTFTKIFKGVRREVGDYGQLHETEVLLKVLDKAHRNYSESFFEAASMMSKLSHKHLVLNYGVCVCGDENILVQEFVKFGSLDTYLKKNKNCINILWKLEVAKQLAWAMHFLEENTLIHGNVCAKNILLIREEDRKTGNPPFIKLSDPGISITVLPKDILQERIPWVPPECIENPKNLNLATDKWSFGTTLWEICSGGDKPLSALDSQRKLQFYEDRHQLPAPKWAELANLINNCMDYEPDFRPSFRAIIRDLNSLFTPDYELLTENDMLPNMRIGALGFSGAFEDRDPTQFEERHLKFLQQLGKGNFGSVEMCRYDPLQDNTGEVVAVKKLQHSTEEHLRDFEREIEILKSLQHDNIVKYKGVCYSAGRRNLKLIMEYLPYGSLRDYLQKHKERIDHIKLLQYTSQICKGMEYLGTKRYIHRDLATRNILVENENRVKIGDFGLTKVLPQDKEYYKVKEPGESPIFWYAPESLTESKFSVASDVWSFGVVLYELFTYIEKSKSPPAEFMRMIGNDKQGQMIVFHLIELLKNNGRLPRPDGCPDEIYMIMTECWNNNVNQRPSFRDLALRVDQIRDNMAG
JAK3, sequence (P52333 whole entry): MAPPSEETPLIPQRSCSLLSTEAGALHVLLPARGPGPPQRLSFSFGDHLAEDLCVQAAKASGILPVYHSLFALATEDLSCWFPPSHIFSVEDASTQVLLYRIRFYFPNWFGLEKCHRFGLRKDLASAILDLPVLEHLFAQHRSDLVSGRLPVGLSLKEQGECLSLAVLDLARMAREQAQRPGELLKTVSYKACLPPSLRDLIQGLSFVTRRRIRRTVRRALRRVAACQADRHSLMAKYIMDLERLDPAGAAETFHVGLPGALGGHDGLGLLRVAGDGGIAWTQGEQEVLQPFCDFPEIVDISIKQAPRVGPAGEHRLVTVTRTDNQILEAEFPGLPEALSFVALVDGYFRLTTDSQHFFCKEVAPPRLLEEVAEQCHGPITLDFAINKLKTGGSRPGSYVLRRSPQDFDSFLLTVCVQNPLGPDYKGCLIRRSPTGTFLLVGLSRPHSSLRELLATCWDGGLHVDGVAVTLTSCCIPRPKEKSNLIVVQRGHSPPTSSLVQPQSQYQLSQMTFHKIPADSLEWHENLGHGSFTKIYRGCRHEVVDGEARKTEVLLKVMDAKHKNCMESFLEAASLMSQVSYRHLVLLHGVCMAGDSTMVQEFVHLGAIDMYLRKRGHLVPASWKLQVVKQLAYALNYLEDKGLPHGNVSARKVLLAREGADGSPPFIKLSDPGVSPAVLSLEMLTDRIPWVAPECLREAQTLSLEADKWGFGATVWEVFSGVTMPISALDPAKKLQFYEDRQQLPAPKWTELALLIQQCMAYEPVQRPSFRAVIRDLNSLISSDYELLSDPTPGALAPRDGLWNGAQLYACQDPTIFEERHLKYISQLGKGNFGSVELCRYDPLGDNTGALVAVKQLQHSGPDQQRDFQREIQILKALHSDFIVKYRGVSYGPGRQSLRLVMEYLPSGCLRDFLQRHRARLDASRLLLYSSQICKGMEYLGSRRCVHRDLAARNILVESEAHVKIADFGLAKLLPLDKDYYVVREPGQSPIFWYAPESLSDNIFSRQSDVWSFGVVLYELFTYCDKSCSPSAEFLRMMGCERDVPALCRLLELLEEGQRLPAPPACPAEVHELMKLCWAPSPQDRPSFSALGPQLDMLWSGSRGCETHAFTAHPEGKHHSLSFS
TTK, sequence (P33981 whole entry): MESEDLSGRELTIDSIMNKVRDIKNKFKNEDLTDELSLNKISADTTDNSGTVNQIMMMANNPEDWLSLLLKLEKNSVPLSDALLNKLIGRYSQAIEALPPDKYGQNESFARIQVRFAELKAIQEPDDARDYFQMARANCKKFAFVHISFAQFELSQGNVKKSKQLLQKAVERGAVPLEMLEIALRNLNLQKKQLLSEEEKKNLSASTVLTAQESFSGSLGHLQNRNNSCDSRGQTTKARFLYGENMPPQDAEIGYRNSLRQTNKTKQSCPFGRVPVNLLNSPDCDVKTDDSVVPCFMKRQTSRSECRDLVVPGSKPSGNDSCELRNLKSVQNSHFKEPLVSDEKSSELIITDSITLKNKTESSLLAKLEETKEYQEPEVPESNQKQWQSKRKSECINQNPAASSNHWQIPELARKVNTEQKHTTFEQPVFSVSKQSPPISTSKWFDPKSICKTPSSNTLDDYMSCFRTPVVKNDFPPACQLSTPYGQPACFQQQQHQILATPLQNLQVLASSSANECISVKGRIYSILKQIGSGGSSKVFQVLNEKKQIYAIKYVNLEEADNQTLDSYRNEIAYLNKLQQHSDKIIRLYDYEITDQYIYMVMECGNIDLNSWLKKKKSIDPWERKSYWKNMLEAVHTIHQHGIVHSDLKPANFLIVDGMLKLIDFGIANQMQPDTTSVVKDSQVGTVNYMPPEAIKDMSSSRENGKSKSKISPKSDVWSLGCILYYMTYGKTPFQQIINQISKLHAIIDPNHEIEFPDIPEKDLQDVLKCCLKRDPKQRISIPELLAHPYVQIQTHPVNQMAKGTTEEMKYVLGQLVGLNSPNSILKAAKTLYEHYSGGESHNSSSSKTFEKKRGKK
AURKB (Aurora B), sequence (Q96GD4 whole entry): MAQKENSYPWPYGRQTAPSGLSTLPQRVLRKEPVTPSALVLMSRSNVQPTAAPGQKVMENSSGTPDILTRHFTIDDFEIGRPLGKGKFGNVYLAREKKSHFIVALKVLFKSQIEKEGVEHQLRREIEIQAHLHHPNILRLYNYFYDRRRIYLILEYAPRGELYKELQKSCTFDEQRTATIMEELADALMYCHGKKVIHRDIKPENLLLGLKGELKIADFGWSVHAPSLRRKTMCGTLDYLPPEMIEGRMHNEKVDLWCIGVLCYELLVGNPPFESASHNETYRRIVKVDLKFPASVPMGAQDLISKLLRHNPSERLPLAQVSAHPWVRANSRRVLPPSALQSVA

Row | SMILES | TTK enz pIC50 (TTK) | IC50 (JAK1) [µM] | IC50 (JAK2) [µM] | IC50 (JAK3) [µM] | IC50 (AURKA (Aurora A)) [µM] | IC50 (AURKB (Aurora B)) [µM] | IC50 (DNAPK [1]) [µM] | IC50 (DNAPK [2]) [µM] | IC50 (TTK; read-out: TTK enz pIC50 (converted)) [µM]
1 | Cc1cc2ncnn2cc1Nc1ncc2c(n1)n([C@H]1CC[C@H](O)CC1)c(=O)n2C [Example 1, 9-((1r,4r)-4-hydroxycyclohexyl)-7-methyl-2-((7-methyl-[1,2,4]triazolo[1,5-a]pyridin-6-yl)amino)-7,9-dihydro-8H-purin-8-one] | 5.5 | > 10 | > 10 | > 10 | > 10 | > 10 |  |  | 
2 | Cc1cc2ncnn2cc1Nc1ncc2c(n1)n([C@H]1CC[C@@H](O)CC1)c(=O)n2C [Example 2, 9-((1s,4s)-4-hydroxycyclohexyl)-7-methyl-2-((7-methyl-[1,2,4]triazolo[1,5-a]pyridin-6-yl)amino)-7,9-dihydro-8H-purin-8-one] | 6.1 | > 10 | > 10 | > 10 | > 10 | > 10 |  |  | 
3 | Cc1cc2ncnn2cc1Nc1ncc2c(n1)n(C1CCOCC1)c(=O)n2C [Example 3, 7-methyl-2-((7-methyl-[1,2,4]triazolo[1,5-a]pyridin-6-yl)amino)-9-(tetrahydro-2H-pyran-4-yl)-7,9-dihydro-8H-purin-8-one] |  | > 10 | > 10 | > 10 | > 10 | > 10 |  |  | 
4 | Cc1nc2cc(C)c(Nc3ncc4c(n3)n(C3CCOCC3)c(=O)n4C)cn2n1 [Example 4, 2-((2,7-dimethyl-[1,2,4]triazolo[1,5-a]pyridin-6-yl)amino)-7-methyl-9-(tetrahydro-2H-pyran-4-yl)-7,9-dihydro-8H-purin-8-one] | 5.1 | > 10 | > 10 | > 10 | > 10 | > 10 | 0.00126 | 0.158 | 
5 | CO[C@H]1CC[C@@H](n2c(=O)n(C)c3cnc(Nc4cn5ncnc5cc4C)nc32)CC1 [Example 5, 9-((1s,4s)-4-methoxycyclohexyl)-7-methyl-2-((7-methyl-[1,2,4]triazolo[1,5-a]pyridin-6-yl)amino)-7,9-dihydro-8H-purin-8-one] | 5.3 | > 10 | > 10 | > 10 | > 10 | > 10 | 0.001 | 0.126 | 
6 | CO[C@H]1CC[C@H](n2c(=O)n(C)c3cnc(Nc4cn5ncnc5cc4C)nc32)CC1 [Example 6, 9-((1r,4r)-methoxycyclohexyl)-7-methyl-2-((7-methyl-[1,2,4]triazolo[1,5-a]pyridin-6-yl)amino)-7,9-dihydro-8H-purin-8-one] | 5.9 | > 10 | > 10 | > 10 | > 10 | > 10 | 0.000251 | 0.0398 | 
7 | Cc1cc2ncnn2cc1Nc1ncc2c(n1)n([C@H]1CCCOC1)c(=O)n2C [Example 7, (S)-7-methyl-2-((7-methyl-[1,2,4]triazolo[1,5-a]pyridin-6-yl)amino)-9-(tetrahydro-2H-pyran-3-yl)-7,9-dihydro-8H-purin-8-one] | 5.2 | > 10 | > 10 | > 10 | > 10 | > 10 | 0.000158 | 0.0501 | 
8 | Cc1cc2ncnn2cc1Nc1ncc2c(n1)n([C@@H]1CCCOC1)c(=O)n2C [Example 8, (R)-7-methyl-2-((7-methyl-[1,2,4]triazolo[1,5-a]pyridin-6-yl)amino)-9-(tetrahydro-2H-pyran-3-yl)-7,9-dihydro-8H-purin-8-one] | 5.2 | > 10 | > 10 | > 10 | > 10 | > 10 | 0.000398 | 0.0631 | 
9 | Cc1cc2ncnn2cc1Nc1ncc2c(n1)n([C@H]1CC[C@](C)(O)CC1)c(=O)n2C [Example 9, 9-((1r,4r)-4-hydroxy-4-methylcyclohexyl)-7-methyl-2-((7-methyl-[1,2,4]triazolo[1,5-a]pyridin-6-yl)amino)-7,9-dihydro-8H-purin-8-one] |  | > 10 | > 10 | > 10 | > 10 | > 10 |  |  | 
10 | Cc1cc2ncnn2cc1Nc1ncc2c(n1)n([C@H]1CC[C@@](C)(O)CC1)c(=O)n2C [Example 10, 9-((1s,4s)-4-hydroxy-4-methylcyclohexyl)-7-methyl-2-((7-methyl-[1,2,4]triazolo[1,5-a]pyridin-6-yl)amino)-7,9-dihydro-8H-purin-8-one] |  | > 10 | > 10 | > 10 | > 10 | > 10 |  |  | 
11 | Cc1cc2ncnn2cc1Nc1ncc2c(n1)n([C@H]1CCOC1)c(=O)n2C [Example 11, (S)-7-methyl-2-((7-methyl-[1,2,4]triazolo[1,5-a]pyridin-6-yl)amino)-9-(tetrahydrofuran-3-yl)-7,9-dihydro-8H-purin-8-one] |  | > 10 | > 10 | > 10 | > 10 | > 10 | 0.000501 | 0.158 | > 7.94
12 | Cc1cc2ncnn2cc1Nc1ncc2c(n1)n([C@]1(C)CC[C@H](O)CC1)c(=O)n2C [Example 12, 9-((1s,4s)-4-hydroxy-1-methylcyclohexyl)-7-methyl-2-((7-methyl-[1,2,4]triazolo[1,5-a]pyridin-6-yl)amino)-7,9-dihydro-8H-purin-8-one] | 5.8 | > 10 | > 10 | > 10 | > 10 | > 10 | 0.0002 | 0.0398 | 
13 | Cc1cc2ncnn2cc1Nc1ncc2c(n1)n(C1CCCCC1)c(=O)n2C [Example 13, 9-cyclohexyl-7-methyl-2-((7-methyl-[1,2,4]triazolo[1,5-a]pyridin-6-yl)amino)-7,9-dihydro-8H-purin-8-one] | 6.3 | > 10 | > 10 | > 10 | 3.98 | > 10 |  |  | 
